{"source": "patent US20100160385A1", "about": "“FUNGICIDAL TRIPHENYL-SUBSTITUTED PYRIDONES” (E.I. DU PONT DE NEMOURS AND COMPANY, priority 2008, published 2010)", "key": {"Alternaria solani": {"tested_on": "Alternaria solani", "details": "tomato seedlings sprayed to run-off, inoculated following day, 48 h saturated atmosphere at 27° C. then 5 days at 20° C.; 100 = 100% disease control, 0 = no control; test concentration not given"}, "[1]": {"tested_on": "Erysiphe graminis f. sp. tritici", "test": "Test A: wheat powdery mildew, preventive spray on wheat seedlings", "format": "in vivo", "details": "wheat seedlings sprayed to run-off, inoculated following day, rated after 8 days at 20° C.; 100 = 100% disease control, 0 = no control; test concentration not given"}, "Septoria nodorum": {"tested_on": "Septoria nodorum", "test": "Test D: wheat glume blotch, preventive spray on wheat seedlings", "format": "in vivo", "details": "wheat seedlings sprayed to run-off, inoculated following day, 48 h saturated atmosphere then 7 days at 20° C.; 100 = 100% disease control, 0 = no control; test concentration not given"}, "Septoria tritici": {"tested_on": "Septoria tritici", "test": "Test C: wheat leaf blotch, preventive spray on wheat seedlings", "format": "in vivo", "details": "wheat seedlings sprayed to run-off, inoculated following day, 48 h saturated atmosphere then 19 days at 20° C.; 100 = 100% disease control, 0 = no control; test concentration not given"}, "Botrytis cinerea": {"tested_on": "Botrytis cinerea", "details": "tomato seedlings sprayed to run-off, inoculated following day, 48 h saturated atmosphere at 20° C. then 3 days at 24° C.; 100 = 100% disease control, 0 = no control; test concentration not given"}, "[2]": {"tested_on": "Puccinia recondite f. sp. tritici", "test": "Test B: wheat leaf rust, preventive spray on wheat seedlings", "format": "in vivo", "details": "wheat seedlings sprayed to run-off, inoculated following day, 24 h saturated atmosphere then 7 days at 20° C.; 100 = 100% disease control, 0 = no control; test concentration not given"}}}
{"smiles": "COc1cc(OC)c(Cl)c(-n2c(-c3ccc(F)cc3)cc(=O)c(C)c2-c2c(F)cc(F)cc2F)c1", "note": "[Compound 1, 1-(2-chloro-3-5-dimethoxyphenyl)-6-(4-fluorophenyl)-3-methyl-2-(2,4,6-trifluorophenyl)-4-(1H)-pyridinone]", "values": [{"measurement": "Test E disease control rating", "setting": "Alternaria solani", "value": 100, "unit": "%"}, {"measurement": "Test A disease control rating", "setting": "[1]", "value": 99, "unit": "%"}, {"measurement": "Test D disease control rating", "setting": "Septoria nodorum", "value": 100, "unit": "%"}, {"measurement": "Test C disease control rating", "setting": "Septoria tritici", "value": 97, "unit": "%"}, {"measurement": "Test F disease control rating", "setting": "Botrytis cinerea", "value": 98, "unit": "%"}, {"measurement": "Test B disease control rating", "setting": "[2]", "value": 100, "unit": "%"}]}
